For orientation: IC50 means the concentration that gives 50% inhibition. A word on the GI50: it is the concentration giving 50% growth inhibition.

One data set deals with Human coronavirus 229E. Kind of data set: Antiviral activity against Human coronavirus 229E cells assessed as inhibition of virus-induced cytopathic effect by crystal violet staining based analysis. The format is functional, organism-based.
The test system of a further data set is Caco-2. Kind of data set: Growth inhibition of human Caco-2 cells measured after 48 hrs by SRB assay. The format is functional. Background: Sulforhodamine B stains cellular protein and so reports cell mass.
In the next data set the test system is AGS. Put plainly: Growth inhibition of human AGS cells measured after 48 hrs by SRB assay. The format is functional.
The nature of data set [1]: Cytotoxicity against African green monkey Vero cells incubated for 48 hrs by SRB colorimetric assay. The format is toxicity, cell-based, Chlorocebus sabaeus.
The test system of a further data set is MCF7. Kind of data set: Growth inhibition of human MCF7 cells measured after 48 hrs by SRB assay. The format is functional.
The subject of a further data set is NCI-H460. Put plainly: Growth inhibition of human NCI-H460 cells measured after 48 hrs by SRB assay. The format is functional.
Data set [2] concerns the target Fibroblast growth factor receptor 1 (Homo sapiens, UniProt P11362). Kind of data set: Inhibition of human recombinant FGFR1 (461 to 768 residues) expressed in Escherichia coli BL21 Gold(DE3) cells by spectrophotometer method.
Another data set deals with KG-1. Put plainly: Antiproliferative activity against FGFR1-translocated human KG-1 cells assessed as reduction in cell viability incubated for 72 hrs by CCK-8 assay. The note with it: KG-1, 72 h. The format is functional, cell-based.
In another data set the test system is MDA-MB-231. Kind of data set: Cytotoxicity against human MDA-MB-231 cells assessed as cell growth inhibition at 10 uM measured after 48 hrs by SRB assay relative to control. Format: functional. More on the design: scale not given: the % may be the effect or the level left.
Data set [3] relates to PC-3. Put plainly: Cytotoxicity against human PC-3 cells assessed as cell growth inhibition at 10 uM measured after 48 hrs by SRB assay relative to control. The format is functional. More on the design: scale not given: the % may be the effect or the level left.
The test system of data set [4] is A549. Kind of data set: Cytotoxicity against human A549 cells assessed as cell growth inhibition at 10 uM measured after 48 hrs by SRB assay relative to control. Format: functional. More on the design: scale not given: the % may be the effect or the level left.
A further data set relates to LOX IMVI. Put plainly: Cytotoxicity against human LOX IMVI cells assessed as cell growth inhibition at 10 uM measured after 48 hrs by SRB assay relative to control. The format is functional. More on the design: scale not given: the % may be the effect or the level left.
For the next data set, the system named is SNB-75. Kind of data set: Cytotoxicity against human SNB-75 cells assessed as cell growth inhibition at 10 uM measured after 48 hrs by SRB assay relative to control. More on the design: scale not given: the % may be the effect or the level left. Format: functional.
The test system of a further data set is HT-29. Kind of data set: Antiproliferative activity against human HT-29 cells assessed as reduction in cell viability incubated for 72 hrs by MTT assay. Format: functional, cell-based. To be noted: HT-29, 72 h. (In general: Tetrazolium assays rely on reduction of a dye to a coloured formazan, in cell work by metabolically active cells.)
Data set [5] concerns the target Amine oxidase [flavin-containing] B (Homo sapiens, UniProt P27338). Kind of data set: Inhibition of human recombinant MAO-B expressed in insect cells incubated for 15 mins by Amplex red and horseradish peroxidase based fluorescence assay. Also on record: species or system Insect cell.
A short description of data set [6]: Antiproliferative activity against mouse Ba/F3 EML4-ALK cells assessed as inhibition of cell growth. Format: functional, cell-based.
A further data set deals with PC-9/ER. Kind of data set: Antiproliferative activity against human PC-9/ER cells assessed as inhibition of cell growth incubated for 48 hrs by MTT assay. Format: functional.
In a further data set the test system is PC-9. Put plainly: Antiproliferative activity against human PC-9 cells assessed as reduction in cell growth incubated for 72 hrs by MTT assay. The format is functional, cell-based. The note with it: PC-9, 72 h.
Data set [7] has as its system A549. Kind of data set: Antiproliferative activity against human A549 cells assessed as inhibition of cell growth at 10 uM relative to control. The format is functional. More on the design: scale not given: the % may be the effect or the level left.
The target in data set [8] is Mitogen-activated protein kinase 3 (Homo sapiens, UniProt P27361). Kind of data set: Inhibition of ERK1 (unknown origin).
The target in data set [9] is Mitogen-activated protein kinase 6 (Homo sapiens, UniProt Q16659). Put plainly: Inhibition of ERK3 (unknown origin).
For data set [10], the target named is Mitogen-activated protein kinase 1 (Homo sapiens, UniProt P28482). Kind of data set: Inhibition of ERK2 (unknown origin).
Data set [11] has as its target Aldo-keto reductase family 1 member B1 (Homo sapiens, UniProt P15121). Kind of data set: Inhibition of human recombinant ALDR1.
For data set [12], the system named is PC-3. Kind of data set: Antiproliferative activity against human PC-3 cells assessed as reduction in cell viability incubated for 48 hrs by CCK-8 assay. To be noted: PC-3, 48 h. The format is functional, cell-based.
Data set [13] in a line: Antiproliferative activity against human THLE-2 cells assessed as reduction in cell viability incubated for 48 hrs by CCK-8 assay. The format is toxicity, cell-based.
The nature of data set [14]: Selectivity index, ratio of IC50 for antiproliferative activity against human THLE-2 cells to IC50 for antiproliferative activity against human PC-3 cells.

SMILES strings stand for the structures.

Sequence of Mitogen-activated protein kinase 3 (P27361 whole entry): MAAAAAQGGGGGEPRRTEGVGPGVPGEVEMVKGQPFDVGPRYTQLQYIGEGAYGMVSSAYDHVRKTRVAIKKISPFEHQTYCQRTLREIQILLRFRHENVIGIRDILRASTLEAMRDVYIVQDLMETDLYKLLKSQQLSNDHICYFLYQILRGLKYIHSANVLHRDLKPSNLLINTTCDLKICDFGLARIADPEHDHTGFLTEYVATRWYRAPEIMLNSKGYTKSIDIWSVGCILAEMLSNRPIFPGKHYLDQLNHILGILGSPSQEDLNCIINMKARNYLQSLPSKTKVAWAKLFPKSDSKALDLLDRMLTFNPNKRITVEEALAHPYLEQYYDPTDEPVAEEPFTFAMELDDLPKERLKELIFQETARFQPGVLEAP
Sequence of Mitogen-activated protein kinase 1 (P28482 whole entry): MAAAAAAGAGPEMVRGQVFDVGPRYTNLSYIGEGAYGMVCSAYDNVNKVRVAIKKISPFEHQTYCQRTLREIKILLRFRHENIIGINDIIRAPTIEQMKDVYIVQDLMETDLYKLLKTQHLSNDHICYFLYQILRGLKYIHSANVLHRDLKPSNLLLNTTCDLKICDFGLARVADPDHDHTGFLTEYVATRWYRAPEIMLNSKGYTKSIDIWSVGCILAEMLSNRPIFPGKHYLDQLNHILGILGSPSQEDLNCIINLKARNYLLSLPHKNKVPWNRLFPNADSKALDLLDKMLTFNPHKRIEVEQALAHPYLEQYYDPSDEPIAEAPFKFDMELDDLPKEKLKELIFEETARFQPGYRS
Sequence of Fibroblast growth factor receptor 1 (P11362 whole entry, the tested form may be a part): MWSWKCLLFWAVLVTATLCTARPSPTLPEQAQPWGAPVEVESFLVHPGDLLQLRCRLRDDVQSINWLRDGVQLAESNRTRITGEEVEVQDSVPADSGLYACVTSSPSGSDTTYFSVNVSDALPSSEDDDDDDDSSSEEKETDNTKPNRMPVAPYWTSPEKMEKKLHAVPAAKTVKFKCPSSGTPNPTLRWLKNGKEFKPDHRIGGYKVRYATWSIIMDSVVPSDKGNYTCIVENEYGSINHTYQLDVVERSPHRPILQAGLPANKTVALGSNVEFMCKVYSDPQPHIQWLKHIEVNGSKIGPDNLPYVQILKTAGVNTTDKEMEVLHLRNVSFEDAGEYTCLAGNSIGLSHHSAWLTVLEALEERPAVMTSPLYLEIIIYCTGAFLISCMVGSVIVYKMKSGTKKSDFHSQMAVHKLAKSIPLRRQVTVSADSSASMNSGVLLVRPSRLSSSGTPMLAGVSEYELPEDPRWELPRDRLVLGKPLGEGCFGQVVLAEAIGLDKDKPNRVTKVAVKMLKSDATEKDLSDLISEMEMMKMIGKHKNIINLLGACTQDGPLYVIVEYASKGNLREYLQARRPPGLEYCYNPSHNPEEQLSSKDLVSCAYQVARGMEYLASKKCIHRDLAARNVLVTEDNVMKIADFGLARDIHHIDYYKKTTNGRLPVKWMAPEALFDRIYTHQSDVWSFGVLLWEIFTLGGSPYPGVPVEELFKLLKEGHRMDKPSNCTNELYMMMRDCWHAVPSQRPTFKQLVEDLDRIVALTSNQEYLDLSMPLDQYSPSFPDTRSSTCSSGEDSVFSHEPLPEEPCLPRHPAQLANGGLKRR
Sequence of Mitogen-activated protein kinase 6 (Q16659 whole entry): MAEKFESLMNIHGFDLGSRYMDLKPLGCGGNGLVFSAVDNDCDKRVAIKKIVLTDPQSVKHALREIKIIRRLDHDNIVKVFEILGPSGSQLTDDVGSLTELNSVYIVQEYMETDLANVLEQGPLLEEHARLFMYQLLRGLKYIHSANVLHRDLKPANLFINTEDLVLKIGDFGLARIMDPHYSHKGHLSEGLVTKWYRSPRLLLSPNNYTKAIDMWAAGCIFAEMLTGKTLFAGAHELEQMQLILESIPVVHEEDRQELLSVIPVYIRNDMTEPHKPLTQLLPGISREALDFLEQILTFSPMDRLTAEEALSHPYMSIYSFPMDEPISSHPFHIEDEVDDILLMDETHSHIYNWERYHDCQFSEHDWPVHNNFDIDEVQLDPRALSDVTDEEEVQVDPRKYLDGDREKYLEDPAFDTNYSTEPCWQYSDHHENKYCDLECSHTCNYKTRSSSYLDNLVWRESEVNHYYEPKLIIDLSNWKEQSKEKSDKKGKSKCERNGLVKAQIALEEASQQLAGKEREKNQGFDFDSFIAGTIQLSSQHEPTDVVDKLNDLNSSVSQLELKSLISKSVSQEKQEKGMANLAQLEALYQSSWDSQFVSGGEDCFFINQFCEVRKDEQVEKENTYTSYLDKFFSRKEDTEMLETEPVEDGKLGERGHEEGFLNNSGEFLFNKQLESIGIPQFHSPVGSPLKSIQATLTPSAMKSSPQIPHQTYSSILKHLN
Sequence of Amine oxidase [flavin-containing] B (P27338 whole entry): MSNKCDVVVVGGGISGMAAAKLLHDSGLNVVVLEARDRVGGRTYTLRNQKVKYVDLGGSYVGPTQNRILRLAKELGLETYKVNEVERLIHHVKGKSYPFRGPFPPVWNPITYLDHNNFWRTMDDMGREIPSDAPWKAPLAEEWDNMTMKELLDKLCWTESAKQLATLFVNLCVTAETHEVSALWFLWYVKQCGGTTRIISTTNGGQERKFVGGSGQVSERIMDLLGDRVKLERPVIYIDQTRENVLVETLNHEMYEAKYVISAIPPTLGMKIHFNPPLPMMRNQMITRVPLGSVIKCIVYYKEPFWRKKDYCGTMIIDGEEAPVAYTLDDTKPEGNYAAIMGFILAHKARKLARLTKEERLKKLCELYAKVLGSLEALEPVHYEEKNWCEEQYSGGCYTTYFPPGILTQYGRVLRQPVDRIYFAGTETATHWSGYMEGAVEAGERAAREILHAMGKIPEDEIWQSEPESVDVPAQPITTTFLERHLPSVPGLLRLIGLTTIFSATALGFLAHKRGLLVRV

With `c1cc(-c2nc3cnccn3c2NC2CCCCC2)ccn1`, in the data set on Human coronavirus 229E, the IC50 was determined as 57000 nM.

In the case of `COC(=O)c1sc2nccnc2c1Nc1ccc(OC)c(OC)c1`, the values for the 50% growth inhibitory concentration (GI50) in the data set on Caco-2 and in the data set with AGS were 8000 nM and 9200 nM, respectively. In addition, the IC50 at 48 h in [1] is 53000 nM.

Consider `COC(=O)c1sc2nccnc2c1Nc1cc(OC)cc(OC)c1`, for which the values for the GI50 with MCF7, with Caco-2 and with NCI-H460 were 41000 nM, 87000 nM and 53000 nM, respectively. In [1], this molecule returned an IC50 at 48 h of 144000 nM.

With `COc1cc(OC)c(F)c(/C=C/c2cnc3c(n2)N(S(=O)(=O)c2cn(CCF)cn2)CC3)c1F`, the half-inhibitory concentration (IC50) in data set [2] was found to be 600 nM; with KG-1 it was 0.5 nM.

As to `COc1ccc(-c2cn3c(-c4ccc(OC)cc4)cnc3c(Oc3ccc4c(C)cc(=O)oc4c3)n2)cc1`, the Activity in the data set on MDA-MB-231 was found to be 93.71%; in the data set with PC-3 [3] it was 83.52%; with A549 [4] it was 83.52%; in the data set on LOX IMVI, 91.98%; in the data set with SNB-75, 85.69%.

Turning to `CNCc1ccc(-c2cc(-c3nc(-c4ccc(S(=O)(=O)C(C)C)cc4)cnc3N)on2)cc1` [BERZOSERTIB], in the data set on HT-29, the IC50 was 19 nM.

On to `O=C(Nc1ccc2c(ccn2Cc2cccc(F)c2)c1)c1cnccn1`, for which, in [5], the IC50 was 780 nM.

As for `CCc1nc(C(N)=O)c(Nc2ccc3c(c2)CCN(C2CC=CC2)CC3)nc1NC1CCOCC1`, the IC50 in [6] worked out at 1.2 nM.

For the molecule `c1cc2cc(-c3cnc4nc(-c5ccc6c(c5)OCCO6)cnc4c3)ccc2[nH]1`, the IC50 with PC-9/ER came to 150 nM; in the data set on PC-9 it was 90 nM.

`Cc1cc(=O)oc2cc(Oc3nc(-c4ccc(Cl)cc4)cn4c(-c5ccc(Cl)cc5)cnc34)ccc12`: the Activity in the data set with A549 [7] is listed as 90.12%.

On to `CN1CCN([C@H]2C[C@@H](c3nc(-c4ccc5ccc(-c6ccccc6)nc5c4)c4c(N)nccn43)C2)CC1`, for which the IC50 in data set [8], in data set [9] and in [10] was 210 nM throughout.

For the molecule `O=C(c1ccc(O)cc1)c1ncc(-c2ccc(O)cc2)nc1C(=O)c1ccc(O)cc1`, the IC50 in data set [11] came out at 6470 nM.

Turning to `C[C@H](O)[C@@]1(C)CCC2[C@]3(C)CC=C4C(C)(C)c5nc(C(=O)NCCc6ccccc6)cnc5C[C@]4(C)[C@H]3CC[C@@]21C` (stereo partly drawn), the IC50 in the data set with PC-3 [12] stood at 930 nM. Moreover, the IC50 at 48 h in data set [13] was found to be 26700 nM. The “Ratio IC50” value in data set [14] is 28.71.
